Measurements published in patent publication US9884842B2, “Combretastatin analogs” (The Board of Trustees of the University of Arkansas, priority 2013, dated 2018).

Key:
Settings in all cases: Homo sapiens
SK-OV-3 = assay: NCI growth inhibition and cytotoxicity screen, Ovarian Cancer panel
MDA-MB-468 = assay: cells
SK-MEL-5 = assay: NCI growth inhibition and cytotoxicity screen, Melanoma panel
HCC-2998 = assay: NCI growth inhibition and cytotoxicity screen, Colon Cancer panel
U251 = assay: NCI growth inhibition and cytotoxicity screen, CNS Cancer panel
KM12 = assay: NCI growth inhibition and cytotoxicity screen, Colon Cancer panel
MALME-3M = assay: NCI growth inhibition and cytotoxicity screen, Melanoma panel
PC-3 = assay: NCI growth inhibition and cytotoxicity screen, Prostate Cancer panel
ACHN = assay: NCI growth inhibition and cytotoxicity screen, Renal Cancer panel
OVCAR-5 = assay: NCI growth inhibition and cytotoxicity screen, Ovarian Cancer panel
SNB-19 = assay: NCI growth inhibition and cytotoxicity screen, CNS Cancer panel
CAKI-1 = assay: NCI growth inhibition and cytotoxicity screen, Renal Cancer panel
UACC-257 = assay: NCI growth inhibition and cytotoxicity screen, Melanoma panel
OVCAR-4 = assay: NCI growth inhibition and cytotoxicity screen, Ovarian Cancer panel
HS 578T = assay: NCI growth inhibition and cytotoxicity screen, Breast Cancer panel
SF-539 = assay: NCI growth inhibition and cytotoxicity screen, CNS Cancer panel
HCT-15 = assay: NCI growth inhibition and cytotoxicity screen, Colon Cancer panel
SW-620 = assay: as above
MCF7 = assay: NCI growth inhibition and cytotoxicity screen, Breast Cancer panel
SNB-75 = assay: NCI growth inhibition and cytotoxicity screen, CNS Cancer panel
LOX-IMVI = assay: NCI growth inhibition and cytotoxicity screen, Melanoma panel
K-562 = assay: NCI growth inhibition and cytotoxicity screen, Leukemia panel
CCRF-CEM = assay: as above
SN12C = assay: NCI growth inhibition and cytotoxicity screen, Renal Cancer panel
NCI-H23 = assay: NCI growth inhibition and cytotoxicity screen, Lung Cancer panel
SK-MEL-2 = assay: NCI growth inhibition and cytotoxicity screen, Melanoma panel
NCI-H322M = assay: NCI growth inhibition and cytotoxicity screen, Lung Cancer panel
NCI-H226 = assay: as above
MOLT-4 = assay: NCI growth inhibition and cytotoxicity screen, Leukemia panel
MDA-MB-231/ATCC = assay: NCI growth inhibition and cytotoxicity screen, Breast Cancer panel

COc1cc(/C(C#N)=C\c2cc3ccccc3s2)cc(OC)c1OC [Formula (I)(a)]
GI50 (SK-OV-3; SK-OV-3): < 10 nM | CC50 (SK-OV-3; SK-OV-3, read-out: LC50): > 100000 nM | GI50 (MDA-MB-468; MDA-MB-468): < 10 nM | CC50 (MDA-MB-468; MDA-MB-468, read-out: LC50): > 100000 nM | GI50 (SK-MEL-5; SK-MEL-5): < 10 nM | CC50 (SK-MEL-5; SK-MEL-5, read-out: LC50): > 100000 nM | GI50 (HCC-2998; HCC 2998): 19.2 nM | CC50 (HCC-2998; HCC 2998, read-out: LC50): > 100000 nM | GI50 (U251; U-251): < 10 nM | CC50 (U251; U-251, read-out: LC50): > 100000 nM | GI50 (KM12; KM12): < 10 nM | CC50 (KM12; KM12, read-out: LC50): > 100000 nM | GI50 (MALME-3M): < 10 nM | CC50 (MALME-3M; read-out: LC50): > 100000 nM | GI50 (PC-3; PC-3): < 10 nM | CC50 (PC-3; PC-3, read-out: LC50): > 100000 nM | GI50 (ACHN): < 10 nM | CC50 (ACHN; read-out: LC50): > 100000 nM | GI50 (OVCAR-5; OVCAR-5): < 10 nM | CC50 (OVCAR-5; OVCAR-5, read-out: LC50): > 100000 nM | GI50 (SNB-19; SNB-19): 39.1 nM | CC50 (SNB-19; SNB-19, read-out: LC50): > 100000 nM | GI50 (CAKI-1; CAKI-1): 37.8 nM | CC50 (CAKI-1; CAKI-1, read-out: LC50): > 100000 nM | GI50 (UACC-257; UACC-257): < 10 nM | CC50 (UACC-257; UACC-257, read-out: LC50): > 100000 nM | GI50 (OVCAR-4; OVCAR-4): < 10 nM | CC50 (OVCAR-4; OVCAR-4, read-out: LC50): > 100000 nM | GI50 (HS 578T): < 10 nM | CC50 (HS 578T; read-out: LC50): > 100000 nM | GI50 (SF-539; SF-539): < 10 nM | CC50 (SF-539; SF-539, read-out: LC50): > 100000 nM | GI50 (HCT-15; HCT-15): < 10 nM | CC50 (HCT-15; HCT-15, read-out: LC50): > 100000 nM | GI50 (SW-620; SW-620): < 10 nM | CC50 (SW-620; SW-620, read-out: LC50): > 100000 nM | GI50 (MCF7; MCF7): < 10 nM | CC50 (MCF7; MCF7, read-out: LC50): > 100000 nM | GI50 (SNB-75; SNB-75): < 10 nM | CC50 (SNB-75; SNB-75, read-out: LC50): > 100000 nM | GI50 (LOX-IMVI): < 10 nM | CC50 (LOX-IMVI; read-out: LC50): > 100000 nM | GI50 (K-562; K562): < 10 nM | CC50 (K-562; K562, read-out: LC50): > 100000 nM | GI50 (CCRF-CEM): < 10 nM | CC50 (CCRF-CEM; read-out: LC50): > 100000 nM | GI50 (SN12C): < 10 nM | CC50 (SN12C; read-out: LC50): > 100000 nM | GI50 (NCI-H23; NCI-H23): < 10 nM | CC50 (NCI-H23; NCI-H23, read-out: LC50): > 100000 nM | GI50 (SK-MEL-2; SK-MEL-2): < 10 nM | CC50 (SK-MEL-2; SK-MEL-2, read-out: LC50): > 100000 nM | GI50 (NCI-H322M): 18.3 nM | CC50 (NCI-H322M; read-out: LC50): > 100000 nM | GI50 (NCI-H226; NCI-H226): 17.9 nM | CC50 (NCI-H226; NCI-H226, read-out: LC50): > 100000 nM | GI50 (MOLT-4; MOLT-4): < 10 nM | CC50 (MOLT-4; MOLT-4, read-out: LC50): > 100000 nM | GI50 (MDA-MB-231/ATCC; MDA-MB-231): < 10 nM | CC50 (MDA-MB-231/ATCC; MDA-MB-231, read-out: LC50): > 100000 nM
